Assay results from PMC10892984, “Novel Antineoplastic Inducers of Mitochondrial Apoptosis in Human Cancer Cells” (Molecules, 2024).

Assays:
NCI-H23 = details: NCI-H23, non-small-cell lung cancer, mutant p53; 48 h
HCT-15 = details: HCT-15, colon cancer, mutant p53; 48 h
M14 = details: M14, melanoma, mutant p53; 48 h
SK-OV-3 = details: SK-OV-3, ovarian cancer, no p53 protein expressed; 48 h
COLO 205 = details: COLO 205, colon cancer, mutant p53; 48 h
SK-MEL-5 = details: SK-MEL-5, melanoma, wild-type p53; 48 h
SN12C = details: renal cancer, mutant p53, 48 h
IGROV1 = details: IGROV1, ovarian cancer, mutant p53; 48 h
T-47D = details: T-47D, breast cancer, mutant p53; 48 h
UACC-257 = details: UACC-257, melanoma, wild-type p53; 48 h
OVCAR-5 = details: OVCAR-5, ovarian cancer, p53 Lit. inconclusive; 48 h
KM-12 = details: KM-12, colon cancer, mutant p53; 48 h
MDA-MB-468 = details: MDA-MB-468, breast cancer, mutant p53; 48 h
A549 = details: A549, non-small-cell lung cancer, wild-type p53; 48 h
CAKI-1 = details: CAKI-1, renal cancer, wild-type p53; 48 h
UO-31 = details: UO-31, renal cancer, wild-type p53; 48 h
786-0 = details: 786-0, renal cancer, mutant p53; 48 h
ACHN = details: renal cancer, wild-type p53, 48 h
BT-549 = details: BT-549, breast cancer, mutant p53; 48 h
OVCAR-8 = details: OVCAR-8, ovarian cancer, mutant p53; 48 h
LOX IMVI = details: melanoma, wild-type p53, 48 h
RXF 393 = details: RXF 393, renal cancer, mutant p53; 48 h
SK-MEL-28 = details: SK-MEL-28, melanoma, mutant p53; 48 h
SK-MEL-2 = details: SK-MEL-2, melanoma, mutant p53; 48 h
OVCAR-3 = details: OVCAR-3, ovarian cancer, mutant p53; 48 h
HCC-2998 = details: HCC-2998, colon cancer, mutant p53; 48 h
HOP-62 = details: HOP-62, non-small-cell lung cancer, mutant p53; 48 h
NCI-H522 = details: NCI-H522, non-small-cell lung cancer, mutant p53; 48 h

COc1cc2c(c(OC)c1OC)-c1ccc(NNC(=S)N(Cc3cccc(C[N+](Cc4cccc(CNC56CC7CC(CC(C7)C5)C6)c4)(Cc4cccc(CNC56CC7CC(CC(C7)C5)C6)c4)Cc4cccc(CN(C(=S)NNc5ccc6c(cc5=O)C(NC(C)=O)CCc5cc(OC)c(OC)c(OC)c5-6)C56CC7CC(CC(C7)C5)C6)c4)c3)C34CC5CC(CC(C5)C3)C4)c(=O)cc1C(NC(C)=O)CC2 [Compound 3, [(bis{3-[(tricyclo[3.3.1.1^3,7]decan-1-ylamino)methyl]benzyl}ammonio)bis(methanediylbenzene-3,1-diylmethanediyl)]di-2-[(aS,7S)-7-(acetylamino)-1,2,3-trimethoxy-9-oxo-5,6,7,9-tetrahydrobenzo[a]heptalen-10-yl]-N-(tricyclo[3.3.1.1^3,7]decan-1-yl)hydrazinecarbothioamide chloride pentahydrate]
TGI (NCI-H23): 5.33 µM
TGI (HCT-15): 5.96 µM
TGI (M14): 2.26 µM
TGI (SK-OV-3): 7.51 µM
TGI (COLO 205): 1.52 µM
TGI (SK-MEL-5): 2.25 µM
TGI (SN12C): 6.90 µM
TGI (IGROV1): 5.95 µM
TGI (T-47D): 9.40 µM
TGI (UACC-257): 10.3 µM
TGI (OVCAR-5): 5.03 µM
TGI (KM-12): 4.52 µM
TGI (MDA-MB-468): 1.75 µM
TGI (A549): 6.00 µM
TGI (CAKI-1): 7.37 µM
TGI (UO-31): 7.20 µM
TGI (786-0): 5.28 µM
TGI (ACHN): 7.99 µM
TGI (BT-549): 5.89 µM
TGI (OVCAR-8): 7.49 µM
TGI (LOX IMVI): 2.86 µM
TGI (RXF 393): 6.65 µM
TGI (SK-MEL-28): 4.07 µM
TGI (SK-MEL-2): 2.76 µM
TGI (OVCAR-3): 6.53 µM
TGI (HCC-2998): 1.47 µM
TGI (HOP-62): 7.43 µM
TGI (NCI-H522): 1.88 µM
